Common to all, as to format: cell-based
Assay [1] is described as follows: MTS proliferation assay (72 h read-out). The note with it: MRC5 cells. The method, then:
(§1) B) MTS Proliferation Assay
(§2) The assay is performed in 96 well tissue culture plates. The cells (range: 1.5*10^3-10^4) are seeded out in 80 μl complete medium 24 h prior to compound treatment. The test compounds are added in 20 μl complete medium containing max 5% DMSO. The final compound concentrations in the assays are in the range of 0.001 μM-10 μM. The assay plates are incubated for 72 h at culture conditions. The MTS reagent is prepared according to the manufacturer's protocol (Promega G1111). 20 μl MTS reagent are added to each well; the assay plates are quickly spun and incubated for another 3 h at culture conditions. Subsequently, the plates are shortly shaked and absorption measured with a microplate-reader at 492 nm. The scores A, B, C and D are explained at the end of the Table.

The test system of assay [2] is tumor cells. In words: MTS proliferation assay (72 h read-out). The protocol:
as §1, §2

A short description of assay [3]: Hoechst 33342 nuclear staining (48 h read-out). The protocol:
(§3) A) Hoechst 33342 Nuclear Staining
(§4) This assay is performed in 96 well tissue culture plates. Appropriate number of cells (adherent cells: 3-5*10^3, suspension cells: 8-10*10^3) are being seeded out in 80 μl complete medium. Adherent cells are incubated for 24 h for proper spreading out before addition of test compounds while suspension cells are immediately treated with test compounds after seeding out. The test compounds are added in 20 μl complete medium containing max 5% DMSO. The final compound concentrations in the assays are in the range of 0.001 μM-10 μM. After 24 h or 48 h incubation at culture conditions, 10 μl medium containing Hoechst 33342 dye (Sigma B-2261) at 2-5 μg/ml are added to each well. The assay plates are then further incubated for 30 minutes and subsequently analyzed with a standard inverted fluorescence microscope.
(§5) The readout allows the determination of the fraction of apoptotic nuclei as well as other morphological criteria specific for apoptosis as a function of the treatment. The scores A, B, C and D are explained at the end of the Table.

For assay [4], the system named is tumor cells. The assay is described as follows: Hoechst 33342 nuclear staining (48 h read-out). The protocol: as §3, §4, §5
Assay [5] can be described thus: Mitochondrial membrane potential, JC-1 (read-out 48 h). As to conditions: PBL, JC-1, 48 h. The method, then:
(§6) D) Mitochondrial Membrane Potential
as §4, with “The final compound concentrations in the assays are in the range of 0.001 μM-10 μM.” left out, “JC-1 (Molecular Probes, T-3168)” for “Hoechst 33342 dye (Sigma B-2261)”, “microscope by using the FITC and TRITC filters.” for “microscope.”
(§7) The readout allows the determination of the fraction of cells which show a dissipation of the mitochondrial membrane potential strongly indicating an apoptotic cell death as a function of the treatment. The scores A, B, C and D are explained at the end of the Table.

In assay [6] the test system is tumor cells. The assay is described as above. The note with it: JC-1, 48 h. The protocol: as §6
as §4, with “The final compound concentrations in the assays are in the range of 0.001 μM-10 μM.” left out, “JC-1 (Molecular Probes, T-3168)” for “Hoechst 33342 dye (Sigma B-2261)”, “microscope by using the FITC and TRITC filters.” for “microscope.”
as §7

Where [7] appears, read: Homo sapiens, HT-1080, HT1080 cells, read-out: MTS proliferation assay IC50, HT1080.
[8] abbreviates: Homo sapiens, HeLa cells, read-out: MTS proliferation assay IC50, HeLa.
Setting [9] is: Jily cells, read-out: MTS proliferation assay IC50, Jily.
The mark [10] stands for this setting: Homo sapiens, MRC5 cells, read-out: Hoechst 33342 nuclear staining EC50, MRC5.
The mark [11] stands for this setting: PBL, read-out: Hoechst 33342 nuclear staining EC50, PBL.
Setting [12] is: Homo sapiens, HeLa cells, read-out: Hoechst 33342 nuclear staining EC50, HeLa.
Where [13] appears, read: Homo sapiens, Jurkat cells, read-out: Hoechst 33342 nuclear staining EC50, Jurkat.
The mark [14] stands for this setting: Jily cells, read-out: Hoechst 33342 nuclear staining EC50, Jily.
The mark [15] stands for this setting: Homo sapiens, HeLa cells, read-out: Mitochondrial membrane potential (read-out 48 h) HeLa.
The mark [16] stands for this setting: Homo sapiens, Jurkat cells, read-out: Mitochondrial membrane potential (read-out 48 h) Jurkat.
Setting [17] is: Homo sapiens, MCF7 cells, read-out: Mitochondrial membrane potential (read-out 48 h) MCF7.
[18] abbreviates: Jily cells, read-out: Mitochondrial membrane potential (read-out 48 h) Jily.
The mark [19] stands for this setting: Homo sapiens, Jurkat cells, read-out: MTS proliferation assay IC50, Jurkat.
[20] abbreviates: HT1080 cells, read-out: MTS proliferation assay IC50, HT1080.
Setting [21] is: HeLa cells, read-out: MTS proliferation assay IC50, HeLa.
Setting [22] is: Jurkat cells, read-out: MTS proliferation assay IC50, Jurkat.
The mark [23] stands for this setting: MRC5 cells, read-out: Hoechst 33342 nuclear staining EC50, MRC5.
Setting [24] is: HeLa cells, read-out: Hoechst 33342 nuclear staining EC50, HeLa.
Setting [25] is: Jurkat cells, read-out: Hoechst 33342 nuclear staining EC50, Jurkat.
Where [26] appears, read: HeLa cells, read-out: Mitochondrial membrane potential (read-out 48 h) HeLa.
The mark [27] stands for this setting: Jurkat cells, read-out: Mitochondrial membrane potential (read-out 48 h) Jurkat.
[28] abbreviates: MCF7 cells, read-out: Mitochondrial membrane potential (read-out 48 h) MCF7.

Drawing on patent US8486996B2, “Aroylfuranes and aroylthiophenes” (Basilea Pharmaceutica AG, priority 2006, dated 2013), this text covers IC50 and EC50 for ten compounds.

Read-outs that look alike come from different tables or passages of the source.

On to `Nc1c(C(=O)c2ccccc2OCc2ccccc2)oc2ccc(Cl)cc12` [Example 1, 3-Amino-5-chloro-2-(2-benzyloxybenzoyl)-benzofuran], for which the IC50 in assay [1] (Homo sapiens) was > 1 µM; in assay [2] (setting [7]) it was > 1 µM; in assay [2] (setting [8]), > 1 µM; in assay [2] (setting [9]) it was 0.1 to 1 µM. For the same compound, the EC50 in assay [3] (setting [10]), in assay [3] (setting [11]), in assay [4] (setting [12]), in assay [4] (setting [13]), in assay [4] (setting [14]) and in assay [5] was > 1 µM throughout. Also, the EC50 was > 1 µM in assay [6] (setting [15]), 0.1 to 1 µM in assay [6] (setting [16]), > 1 µM in assay [6] (setting [17]) and > 1 µM in assay [6] (setting [18]).
In the case of `CCOc1ccccc1C(=O)c1oc2c(C)cccc2c1N` [Example 5, 3-Amino-7-methyl-2-(2-ethoxybenzoyl)-benzofuran], the IC50 in assay [1] (Homo sapiens) was > 1 µM; in assay [2] (setting [7]), > 1 µM; in assay [2] (setting [8]), > 1 µM; in assay [2] (setting [19]), 0.1 to 1 µM; in assay [2] (setting [9]), 0.1 to 1 µM. Further, the EC50 is > 1 µM in assay [3] (setting [10]); > 1 µM in assay [3] (setting [11]); > 1 µM in assay [4] (setting [12]); 0.1 to 1 µM in assay [4] (setting [13]); > 1 µM in assay [4] (setting [14]); > 1 µM in assay [5]. The EC50 in assay [6] (setting [15]) was > 1 µM; in assay [6] (setting [16]) it was 0.1 to 1 µM; in assay [6] (setting [17]) it was > 1 µM; in assay [6] (setting [18]), > 1 µM.
For `Nc1c(C(=O)c2ccccc2OCCN2CCOCC2)oc2ccc(Cl)cc12` [Example 10], the IC50 in assay [1], in assay [2] (setting [20]), in assay [2] (setting [21]), in assay [2] (setting [9]) and in assay [2] (setting [22]) was > 1 µM in each case. Besides, the EC50 in assay [3] (setting [23]), in assay [3] (setting [11]), in assay [4] (setting [24]), in assay [4] (setting [14]), in assay [4] (setting [25]) and in assay [5] was > 1 µM each time. In addition, the EC50 in assay [6] (setting [26]), in assay [6] (setting [18]), in assay [6] (setting [27]) and in assay [6] (setting [28]) was > 1 µM throughout.
For the compound `CN(C)CCOc1ccccc1C(=O)c1oc2ccc(Cl)cc2c1N` [Example 11], the IC50 in assay [1], in assay [2] (setting [20]), in assay [2] (setting [21]), in assay [2] (setting [9]) and in assay [2] (setting [22]) was > 1 µM in each case. The EC50 in assay [3] (setting [23]), in assay [3] (setting [11]), in assay [4] (setting [24]), in assay [4] (setting [14]), in assay [4] (setting [25]) and in assay [5] was > 1 µM each time. Besides, the EC50 in assay [6] (setting [26]), in assay [6] (setting [18]), in assay [6] (setting [27]) and in assay [6] (setting [28]) was > 1 µM throughout.
As to `CCOc1ccc(OCC)c(C(=O)c2oc3ccc(Cl)cc3c2N)c1` [Example 19], the IC50 in assay [1] (Homo sapiens), in assay [2] (setting [7]), in assay [2] (setting [8]) and in assay [2] (setting [9]) was 0.1 to 1 µM each time. For the same compound, the EC50 is 0.1 to 1 µM in assay [3] (setting [10]); > 1 µM in assay [3] (setting [11]); 0.1 to 1 µM in assay [4] (setting [12]); 0.1 to 1 µM in assay [4] (setting [13]); 0.1 to 1 µM in assay [4] (setting [14]); > 1 µM in assay [5]. Besides, the EC50 in assay [6] (setting [15]), in assay [6] (setting [16]), in assay [6] (setting [17]) and in assay [6] (setting [18]) was 0.1 to 1 µM each time.
On to `CCOc1ccc(-n2cccc2)cc1C(=O)c1oc2ccc(Cl)cc2c1N` [Example 22], for which the IC50 in assay [1], in assay [2] (setting [20]), in assay [2] (setting [21]), in assay [2] (setting [9]) and in assay [2] (setting [22]) was 0.1 to 1 µM throughout. Besides, the EC50 in assay [3] (setting [23]) was 0.1 to 1 µM; in assay [3] (setting [11]) it was > 1 µM; in assay [4] (setting [24]), 0.1 to 1 µM; in assay [4] (setting [14]), 0.1 to 1 µM; in assay [4] (setting [25]), 0.1 to 1 µM; in assay [5] it was > 1 µM. Further, the EC50 in assay [6] (setting [26]) was 0.1 to 1 µM; in assay [6] (setting [18]), 0.1 to 1 µM; in assay [6] (setting [27]), 0.1 to 1 µM; in assay [6] (setting [28]) it was > 1 µM.
Take `CCOc1ccccc1C(=O)c1oc2ccc(Cl)cc2c1O` [Example 32, 5-Chloro-2-(2-ethoxybenzoyl)-3-hydroxybenzofuran]: the IC50 in assay [1] (Homo sapiens), in assay [2] (setting [7]), in assay [2] (setting [8]), in assay [2] (setting [19]) and in assay [2] (setting [9]) was > 1 µM in each case. For the same compound, the EC50 in assay [3] (setting [10]), in assay [3] (setting [11]), in assay [4] (setting [12]), in assay [4] (setting [13]), in assay [4] (setting [14]) and in assay [5] was > 1 µM throughout. Further, the EC50 in assay [6] (setting [15]), in assay [6] (setting [16]), in assay [6] (setting [17]) and in assay [6] (setting [18]) was > 1 µM in each case.
`COc1ccc2oc(C(=O)c3cccnc3N3CCOCC3)cc2c1` [Example 39, 5-Methoxy-2-(2-morpholino-3-pyridylcarbonyl)-benzofuran]: the IC50 in assay [1] (Homo sapiens), in assay [2] (setting [7]), in assay [2] (setting [8]), in assay [2] (setting [19]) and in assay [2] (setting [9]) was 0.01 to 0.1 µM throughout. Besides, the EC50 in assay [3] (setting [10]) was 0.01 to 0.1 µM; in assay [3] (setting [11]), > 1 µM; in assay [4] (setting [12]), 0.01 to 0.1 µM; in assay [4] (setting [13]) it was 0.01 to 0.1 µM; in assay [4] (setting [14]), 0.01 to 0.1 µM; in assay [5], > 1 µM. The EC50 fell in the range of 0.01 to 0.1 µM in assay [6] (setting [15]), 0.01 to 0.1 µM in assay [6] (setting [16]), 0.1 to 1 µM in assay [6] (setting [17]) and 0.01 to 0.1 µM in assay [6] (setting [18]).
`CCOc1ccccc1C(=O)c1oc2ccc(I)cc2c1N` [Example 43]: the IC50 in assay [1], in assay [2] (setting [20]), in assay [2] (setting [21]), in assay [2] (setting [9]) and in assay [2] (setting [22]) was > 1 µM in each case. Moreover, the EC50 in assay [3] (setting [23]), in assay [3] (setting [11]), in assay [4] (setting [24]), in assay [4] (setting [14]), in assay [4] (setting [25]) and in assay [5] was > 1 µM each time. In addition, the EC50 in assay [6] (setting [26]), in assay [6] (setting [18]), in assay [6] (setting [27]) and in assay [6] (setting [28]) was > 1 µM each time.
For `COc1ccc2oc(C(=O)c3cc(F)ccc3N3CCCCC3)cc2c1` [Example 95], the IC50 in assay [1], in assay [2] (setting [20]), in assay [2] (setting [21]), in assay [2] (setting [9]) and in assay [2] (setting [22]) was 0.01 to 0.1 µM each time.
